Test results from ChEMBL document CHEMBL1131604, “3,6-Diamino-10-methylacridan: uncharged precursor of acriflavine and its unique antimicrobial activity” (1998).

Legend:
Human alphaherpesvirus 1 [1] = assay: Reduction of titer of Herpes simplex type-1 virus after 2 hr of incubation at 0.1% concentration; type: functional
Human alphaherpesvirus 1 [2] = assay: Reduction of titer of Herpes simplex type-1 virus after 2 hr of incubation at 0.01% concentration; type: functional

SMILES: CN1c2cc(N)ccc2Cc2ccc(N)cc21
- TCID50 (Human alphaherpesvirus 1 [1]): 3.7
- TCID50 (Human alphaherpesvirus 1 [2]): 1.6
